Results on three compounds are retold here after patent US9827212B2, “Compositions and methods for treating asthma and other lung diseases” (THE TRUSTEES OF THE UNIVERSITY OF PENNSYLVANIA, priority 2010, dated 2017).

Read-outs that look alike come from different tables or passages of the source.

One assay concerns RANTES. The experiment in a line: RANTES secretion from human precision cut lung slices (PCLS). It counts as cell-based. Particulars: for inhibition of RANTES secretion from PCLS: TSA 10 μM or budesonide 50 nM 2 h prior. As to the method:
(§1) FIG. 11. […] Secretion of IL-6 and RANTES was analyzed as described under materials and methods. Values shown are mean+/− s.d. from three samples.
(§2) The levels of cytokine secreted into the supernatants of PCLS and bronchoalveolar lavage (BAL) fluid samples were determined by ELISA according to standard protocols as previously described (Banerjee et al. 2008). The cytokine amounts were calculated from the standard curves in each plate. The limits of detection were 5 pg/ml for IL-4 and IL-6 and RANTES standards. Recombinant mouse IL-4 and IL-6 and human RANTES were used as controls.
(§3) Human lung slice preparation. Human PCLS were prepared as previously described (Cooper et al. 2008). Briefly, healthy whole human lungs were received from the NDRI, and the smallest lobe was dissected out and its main bronchus identified. The lobe was inflated using a 2% (wt/vol) low melting point agarose solution. Once the agarose had set, the lobe was sectioned, and cores of 8-mm diameter were made. The cores that contained a small airway by visual inspection were sliced at a thickness of 250 μm (Krumdieck Tissue Slicer; model no. MD4000; Alabama Research and Development) and collected in wells containing supplemented Ham's F-12 medium. Suitable airways (≦1-mm diameter) on slices were selected on the basis of the following criteria: presence of a full smooth muscle wall (i.e., cut perpendicular to direction of airway); presence of beating cilia to eliminate blood vessels; and unshared muscle walls at airway branch points to eliminate possible counteracting contractile forces. […] Adjacent slices containing contiguous segments of the same airway were paired to act as control to the variable tested and incubated at 37° C. on a rotating platform in a humidified air-CO2 (95-5%) incubator. Sections were placed in fresh media every 2-3 h during the remainder of day 1 and all of day 2 to rid the slice and media of agarose and endogenous substances released that could variably confound the production of inflammatory mediators and/or alter airway tone.
(§4) Three airways from each donor were used per condition; n values indicate the number of donors. Data are expressed as means± SEM. Statistical difference was shown by using a nonpaired t test.

Assay [1] deals with IL-6. As to the kind of experiment: IL-6 secretion from human precision cut lung slices (PCLS). The assay is classed as cell-based. The settings on record: for inhibition at 0.05 µM: Homo sapiens; for inhibition at 0.05 µM / inhibition of IL-6 secretion from PCLS: TSA 10 μM or budesonide 50 nM 2 h prior. The method, then:
as §1, §2, §3, §4

Assay [2] deals with mice sensitized and challenged with Aspergillus fumigatus (AF). As to the kind of experiment: Invasive lung function (FlexiVent), methacholine challenge, Aspergillus fumigatus sensitized and challenged mice. The assay is classed as in vivo. The settings on record: TSA 0.6 mg/kg i.p., dexamethasone 2.5 mg/kg i.p. The method, then: (§5) Mice were sensitized by intraperitoneal (I.P.) injections of 20 μg allergen, a protein extract of the ubiquitous, airborn fungus, Aspergillus fumigatus (AF), (Bayer Pharmaceuticals), in 100 μl PBS solution containing 2 mg of alum (Imject Alum, Pierce) on days 0 and 14 and challenged on days 25, 26, and 27 with 30 μl of Af extract in PBS (25 μg) intranasally (i.n.) (FIG. 1).
(§6) Lung resistance, compliance, elastance, tissue damping, tissue elastance, and airway resistance were recorded using the FlexiVent system (SCIREQ Scientific Respiratory Equipment Inc). The FlexiVent System Overview is shown in FIG. 1B: FlexiVent is a modular, multi-functional device that performs both mechanical ventilation and detailed measurements of respiratory mechanics in subjects.
(§7) The mice were anesthetized by an I.P. injection of a Ketamine (100 mg/kg) and Xylazine (20 mg/kg) mixture. After anesthesia, a half centimeter incision was made from the rostal to caudal direction; the flap of skin was retracted and the connective tissue was dissected away, and the trachea was exposed. The trachea was then cannulated between the second and third cartilage rings with a blunt-end stub adapter. The cannula was secured with suture. The mice were next connected to the Flexivent system. All spontaneous respirations were stopped with an intramuscular injection of Pancuronium Bromide (3 mg/kg) and the mice were then mechanically ventilated at respiratory rate of 140 beats/per minute with 0.25 ml of tidal volume. The Flexivent system then briefly interrupted the mechanical ventilation to apply a test signal, or perturbation to measure the respiratory mechanics. The respiratory mechanics were then calculated from the data collected while the perturbation was applied. […] At the end of testing the mice were disconnected and processed for multiple organ, blood, and fluid removal. The mice were first exsanguinated through the optical artery. Then bronchoalveolar lavage was performed through the tracheal canula. Finally, the peritoneal and the thoracic cavity were opened, and the lungs were removed for protein and histological processing.

The test system of assay [3] is naïve mice challenged with methacholine. The experiment in a line: Invasive lung function (FlexiVent), methacholine challenge, naïve mice. The assay is classed as in vivo. The settings on record: dexamethasone 2.5 mg/kg i.p. As to the method:
as §6, §7

Assay [4] has as its system inflammatory cells in bronchoalveolar lavage (BAL) fluid. The experiment in a line: BAL cell count and differential. It counts as in vivo, mice. As to the method: as §5
After functional measurements were completed, lungs were lavaged with 1-ml aliquots of sterile saline through the tracheal cannula. After centrifuging (500 g for 10 min at 4° C.) the cell pellet was resuspended in RPMI. Differential cell counts were made from cytospin preparations as described (Elwood et al. 1991). Cells were identified as macrophages, eosinophils, neutrophils, and lymphocytes by standard morphology and at least 300 cells were counted under ×400 magnification. The percentage and absolute numbers of each cell type were then calculated. The supernatants were harvested and stored at −20° C. for further analysis.

The next assay has as its system HDAC. Particulars: TSA 0.6 mg/kg i.p. As to the method:
HDAC activity was measured as described previously (Trivedi et al. 2007). […] 50 μg of total extract was incubated with HDAC assay substrate and incubated at 30° C. for 60 min. After the addition of diluted activator reagent, samples were incubated at room temperature for 15 min, and readings were taken by fluorescent microplate reader at an excitation of 360 nm and emission of 450 nm. A standard curve was performed according to the manufacturer's protocol.

The subject of assay [5] is IL-6. As to the kind of experiment: IL-6 level in BAL fluid (ELISA). It counts as in vivo, mice. As to the method:
as §5, §2

The test system of a further assay is IL-4. As to the kind of experiment: IL-4 level in BAL fluid (ELISA). The assay is classed as in vivo, mice. As to the method:
as §5, §2
Background: In an ELISA, binding on a coated surface is turned into a signal by an enzyme label.

[6] abbreviates: TNFα (10 ng/mL) and IFNγ (10,000 IU/mL) stimulated.
The mark [7] stands for this setting: mice sensitized and challenged with Aspergillus.
Setting [8] is: unsensitized and unchallenged (naïve) mice.

Broadly, the inhibition is the share of the control response that was lost under treatment. A high value points to a strong effect. As to `CCCC1O[C@@H]2C[C@H]3[C@@H]4CCC5=CC(=O)C=C[C@]5(C)[C@H]4[C@@H](O)C[C@]3(C)[C@]2(C(=O)CO)O1` (some centres unmarked) [budesonide], the figures for the inhibition at 0.05 µM with RANTES (Homo sapiens), in the assay on IL-6 [1] (setting [6]) and in the assay with IL-6 [1] (TNFα (10 ng/mL) stimulated) were 69%, 52.7% and 44.4%, respectively.

As for `C[C@@H]1C[C@H]2[C@@H]3CCC4=CC(=O)C=C[C@]4(C)[C@@]3(F)[C@@H](O)C[C@]2(C)[C@@]1(O)C(=O)CO` [dexamethasone], in assay [2], the “Emax of airway resistance in response to methacholine” value was found to be 6 cmH2O/mL and the “dynamic compliance, maximum inhibition by methacholine” value worked out at 0.005 mL/cmH2O. Also, the “Emax of airway (lung) resistance in response to methacholine” value in assay [3] (TSA 0.6 mg/kg i.p. in DMSO) is 2.3 cmH2O/mL. The “dynamic compliance, maximum inhibition by methacholine” value in assay [3] (TSA 0.6 mg/kg i.p.) turned out to be 0.010 mL/cmH2O.

On to `CC(/C=C/C(=O)NO)=C\[C@@H](C)C(=O)c1ccc(N(C)C)cc1` [TSA, Trichostatin A], for which the “inhibition of RANTES secretion from PCLS” value in the assay on RANTES (TNFα (10 ng/mL) and IFNγ (10,000 IU/mL) induced) stood at 55.1%+/−7.5%; in the assay on RANTES (TNFα (10 ng/mL) induced) it was 50%+/−23%. Also, in the assay with RANTES (unstimulated, TSA 10 μM), the “basal RANTES secretion from PCLS” value was “did not induce basal RANTES secretion”. In assay [4] (Aspergillus challenged mice, TSA 0.6 mg/kg i.p., dexamethasone 2.5 mg/kg i.p.), the BAL eosinophil counts result was “no effect”. For the same compound, the “total cell counts in BAL” value is reported as “no effect” in assay [4] (Aspergillus sensitized and challenged mice, TSA 0.6 mg/kg i.p., dexamethasone 2.5 mg/kg i.p.); “no significant difference in cell counts” in assay [4] (naïve mice, TSA 0.6 mg/kg i.p., dexamethasone 2.5 mg/kg i.p.). For the same compound, the “percentages of inflammatory cells in the BAL” value in assay [4] (after allergen sensitization and challenge) is reported as “little effect”. Further, the “BAL macrophages, neutrophils, or lymphocytes” value in assay [4] (untreated mice or Aspergillus sensitized and challenged mice) is listed as “no significant differences”. The “dynamic compliance, maximum inhibition by methacholine” value in assay [2] is listed as 0.008 mL/cmH2O; in assay [3] (TSA 0.6 mg/kg i.p.), 0.032 mL/cmH2O. Further, the “half maximal effective concentration of methacholine (airway resistance)” value in assay [2] is on record as 20 mg/mL. The “half maximal inhibitory concentration of methacholine on dynamic compliance” value was 5 mg/mL in assay [2] and 2.5 mg/mL in assay [3] (TSA 0.6 mg/kg i.p.). The “HDAC activity in lung tissue” value with HDAC (setting [7]) and in the assay with HDAC (naïve mice) was “effectively inhibited HDAC activity” in each case. Also, the “inhibition of IL-6 secretion from PCLS” value with IL-6 [1] (setting [6]) came out at 18.8%+/−6.8%; in the assay with IL-6 [1] (TNFα (10 ng/mL) stimulated), 30.2%+/−12.5%. In the assay with IL-6 [1] (unstimulated, TSA 10 μM), the “basal IL-6 secretion from PCLS” value is listed as “little effect on basal IL-6 secretion”. Also, the results for the “IL-6 in BAL” value in the assay with IL-6 [5] (setting [7]) and in the assay on IL-6 [5] (setting [8]) were “little effect on cytokine secretion” and “did not increase”, respectively. Also, the “IL-4 in BAL” value in the assay with IL-4 (setting [7]) was “little effect on cytokine secretion”; with IL-4 (setting [8]), “did not increase”.
